Data on 3 molecules can be found in DBAASP.

Common to all, as to experiment: ≥ marks a high value that may be exact or a test limit, other limits are often not marked, values filed in µg/mL are converted to µM
Test [1] deals with Bacillus subtilis IAM 1071.
The subject of test [2] is Micrococcus luteus IAM 1056.
In test [3] the test system is Proteus vulgaris IAM 12542.
Test [4] concerns Escherichia coli K-12 W3110.
Test [5] concerns Aeromonas hydrophila IAM 12460.
Test [6] concerns Bacillus cereus IAM 1110.
The test system of test [7] is Staphylococcus aureus ATCC 25923.
Test [8] concerns Staphylococcus aureus 274/08.
For test [9], the system named is Staphylococcus aureus 127/08.
For test [10], the system named is Klebsiella pneumoniae ATCC 700603.
The subject of test [11] is Pseudomonas aeruginosa ATCC 27853.
For test [12], the system named is Acinetobacter baumannii I NM8.
Test [13] concerns Staphylococcus aureus V4180.
Test [14] deals with Escherichia coli ATCC 25726.
The subject of test [15] is Staphylococcus aureus S908.
The test system of test [16] is Staphylococcus aureus 145/08.
The subject of test [17] is Staphylococcus aureus T4/6.
Test [18] deals with Candida albicans ATCC 90028.
Test [19] has as its system Streptococcus sanguinis NY101.
The test system of test [20] is Streptococcus mutans GS-5.
Test [21] relates to Streptococcus mutans comD.
In test [22] the test system is Streptococcus gordonii ATCC 10558.
For test [23], the system named is Streptococcus sanguinis ATCC 49295.
The test system of test [24] is Streptococcus mutans T8.
The subject of test [25] is Streptococcus gordonii DL1.
In test [26] the test system is Streptococcus mutans ATCC 25175.
Test [27] has as its system Streptococcus mutans UA159.

≈ marks a conversion by molar mass, not a printed value. Where “and” joins values, the source holds several entries; their conditions need not be identical. Equal entries are not always repeated.

The MIC is the smallest concentration in the dilution series that meets the test's criterion for growth inhibition. Consider `CC[C@H](C)[C@@H]1NC(=O)CNC(=O)[C@@H]2CSSC[C@@H]3NC(=O)[C@H](C(C)C)NC(=O)[C@H](CCCN=C(N)N)NC(=O)[C@H](CCCCN)NC(=O)[C@H](CCCCN)NC(=O)[C@H](CC(N)=O)NC(=O)[C@H](CSSC[C@H](NC(=O)[C@@H](NC(=O)[C@@H](N)Cc4ccccc4)[C@@H](C)O)C(=O)N[C@@H](CC(=O)O)C(=O)N[C@@H](C(C)C)C(=O)N[C@@H](CC(C)C)C(=O)N[C@@H](CO)C(=O)N[C@@H](C(C)C)C(=O)N[C@@H](CCC(=O)O)C(=O)N[C@@H](C)C(=O)N[C@@H](CCCCN)C(=O)NCC(=O)N[C@@H](C(C)C)C(=O)N[C@@H](CCCCN)C(=O)N[C@@H](CC(C)C)C(=O)N[C@@H](CC(N)=O)C(=O)N[C@@H](Cc4cnc[nH]4)C(=O)N[C@@H](C)C(=O)N[C@@H](C)C(=O)N2)NC(=O)[C@H](Cc2ccc(O)cc2)NC(=O)CNC(=O)CNC(=O)[C@H]([C@@H](C)O)NC(=O)[C@H](CCCN=C(N)N)NC(=O)[C@H](CCCN=C(N)N)NC(=O)[C@H](CCCN=C(N)N)NC(=O)[C@H](Cc2ccccc2)NC(=O)[C@H](CC(C)C)NC(=O)[C@H](CSSC[C@@H](C(=O)N[C@@H](CCCN=C(N)N)C(=O)O)NC(=O)[C@H]([C@@H](C)CC)NC3=O)NC(=O)[C@H](Cc2cnc[nH]2)NC1=O` [FTCDVLSVEAKGVKLNHAACGIHCLFRRRTGGYCNKKRVCICR], for which the MIC in [1] came out at 2.12 µM; in [2] it was 0.0665 µM; in [3] it was 2.12 µM; in test [4], 4.24 µM; in test [5], 2.12 µM; in test [6], 4.24 µM.
`CC(C)C[C@H](NC(=O)CNC(=O)[C@H](CC(C)C)NC(=O)[C@H](CCCCN)NC(=O)[C@H](CC(C)C)NC(=O)[C@H](CC(C)C)NC(=O)[C@@H]1CCCN1C(=O)CNC(=O)[C@H](CC(C)C)NC(=O)[C@H](Cc1ccccc1)NC(=O)CN)C(=O)N[C@@H](CCCCN)C(=O)NCC(=O)N[C@@H](C)C(=O)N[C@@H](C)C(=O)N[C@@H](CCCCN)C(=O)N[C@@H](CC(C)C)C(=O)N[C@@H](CC(C)C)C(=O)N1CCC[C@H]1C(=O)N[C@@H](CCC(N)=O)C(=O)N[C@@H](CC(C)C)C(=O)N[C@@H](CC(C)C)C(=O)N1CCC[C@H]1C(=O)N[C@@H](CO)C(=O)N[C@@H](CCCN=C(N)N)C(=O)N[C@@H](CCC(N)=O)C(=O)N[C@@H](CCC(N)=O)C(=O)O` [GFLGPLLKLGLKGAAKLLPQLLPSRQQ]: the MIC in test [7] was 2.5 µM and 6 µM; in test [8] it was 2.5 µM (≈ 7.14 µg/mL); in test [9], 2.5 µM (≈ 7.14 µg/mL); in test [10] it was 50 µM (≈ 143 µg/mL); in [11], 25 µM (≈ 71.4 µg/mL); in test [12], 6 µM (≈ 17.1 µg/mL). The MIC is 2.5 µM (≈ 7.14 µg/mL) in test [13]; no less than 50 µM in test [14]; 2.5 µM (≈ 7.14 µg/mL) in test [15]; 2.5 µM (≈ 7.14 µg/mL) in test [16]; 2.5 µM (≈ 7.14 µg/mL) in test [17]; 12.5 µM (≈ 35.7 µg/mL) in test [18].
Take `CC(C)C[C@H](NC(=O)[C@H](CCCN=C(N)N)NC(=O)[C@H](Cc1ccccc1)NC(=O)[C@H](Cc1ccccc1)NC(=O)[C@@H](N)[C@@H](C)O)C(=O)N[C@@H](Cc1ccccc1)C(=O)N[C@@H](CC(N)=O)C(=O)N[C@@H](CCCN=C(N)N)C(=O)O` [TFFRLFNR]: the MIC in [19] was no less than 60 µM; in test [20] it was no less than 233 µM; in test [21] it was no less than 60 µM; in test [22], no less than 233 µM; in test [23] it was no less than 233 µM; in [24], no less than 60 µM. The minimum inhibitory concentration (MIC) in [25] was no less than 60 µM; in test [26] it was no less than 60 µM; in [27], no less than 233 µM.
